Among the data in the OligoGym collection are remaining target (mRNA or protein) (fraction of control) values, retold here.

Values joined by “and” are separate entries in the source; they are usually repeats but may differ in a detail not shown here. Equal values may be shown once. These antisense oligonucleotides have a phosphorothioate backbone; sugars and methylation of C are not fully specified.

Some targets named below: PIK3CB; MAP2K1; PIK3CD.
What all share (details): ASO
Also: test concentration or dose not given here.

AACATTTGGAGTGTCAACAT: in the series with PIK3CB, the remaining target (mRNA or protein) (fraction of control) was not below 1.

For the sequence AACCAGAAGTCTACAGAT, the remaining target (mRNA or protein) (fraction of control) with MAP2K1 was found to be 0.69.

Turning to AAGAGTAGAATCTTGGCA, the remaining target (mRNA or protein) (fraction of control) with MAP2K1 worked out at 0.9.

In turn, AAGGATTTTCATACAATT gave a remaining target (mRNA or protein) (fraction of control) with MAP2K1 of 0.7.

As for AAGTTTTCAGGGATGGATGG, the remaining target (mRNA or protein) (fraction of control) in the series with PIK3CB was not below 1.

Turning to AATGAGTGTCATCCCGCCCT, in the series with PIK3CD, the remaining target (mRNA or protein) (fraction of control) was 0.4 and 0.14.

For the sequence AATTCCCCAGAAAGTGGCCA, in the series with PIK3CD, the remaining target (mRNA or protein) (fraction of control) is 0.74 and 0.5.

In the series with PIK3CB, AATTGTGAACTTGCTTCCAT displayed a remaining target (mRNA or protein) (fraction of control) of 0.74.

On to ACCAATGTGCTTGGTCCCCA, for which the remaining target (mRNA or protein) (fraction of control) with PIK3CD was ≥ 1 and 0.37.

The sequence ACCAGCCCTGACATGAACTT displayed a remaining target (mRNA or protein) (fraction of control) with PIK3CB of 0.45.

Turning to ACCCACTTGAAAAGTGGAGA, in the series with PIK3CD, the remaining target (mRNA or protein) (fraction of control) is 0.99 and 0.8.

Regarding ACTAAGTATCCCACACAG, the remaining target (mRNA or protein) (fraction of control) in the series with MAP2K1 was 0.16.

For ACTACTGCCTGTTGTCTTTG, in the series with PIK3CD, the remaining target (mRNA or protein) (fraction of control) was ≥ 1 and 0.44.

In the series with PIK3CB, ACTATGTCTGTCACCAATCC returned a remaining target (mRNA or protein) (fraction of control) of 0.52.

For ACTGCCTGTTGTCTTTGGAC, the remaining target (mRNA or protein) (fraction of control) in the series with PIK3CD is 0.74 and 0.44.

On to ACTGGATATAAATCCCAGTG, for which the remaining target (mRNA or protein) (fraction of control) with PIK3CB was not below 1.

In the case of AGACCCCTGTGGGCAGCAGG, in the series with PIK3CD, the remaining target (mRNA or protein) (fraction of control) is 0.78 and 0.46.

For AGCAGCATGGGTTGGTGT, in the series with MAP2K1, the remaining target (mRNA or protein) (fraction of control) is 0.41.

As for AGCTGCCAGAACTCAGTCTA, the remaining target (mRNA or protein) (fraction of control) with PIK3CD was 0.53 and 0.48.

In turn, AGGAGGCCCAAAAGCGAC came in with a remaining target (mRNA or protein) (fraction of control) with MAP2K1 of 0.65.

AGGCCGATGGTGGAGCAG gave a remaining target (mRNA or protein) (fraction of control) with MAP2K1 of 0.14.

Take AGGTATGGAGCCATCAGATG: the remaining target (mRNA or protein) (fraction of control) in the series with PIK3CB was not below 1.

AGTAGCCAGCACAGGACAGT had a remaining target (mRNA or protein) (fraction of control) in the series with PIK3CB not below 1.

Consider AGTAGGCACCAGGTGACCGC, for which the remaining target (mRNA or protein) (fraction of control) with PIK3CD was 0.77 and 0.67.

In the series with MAP2K1, AGTCACAGAGCTTGATCT yielded a remaining target (mRNA or protein) (fraction of control) of 0.31.

Regarding AGTCCACCCCAGGGGGCATC, in the series with PIK3CD, the remaining target (mRNA or protein) (fraction of control) was ≥ 1 and 0.45.

As to AGTCGATGAGCTGCCCGC, the remaining target (mRNA or protein) (fraction of control) with MAP2K1 was 0.24.

Regarding ATGAACAGCTACGATGAGCT, in the series with PIK3CB, the remaining target (mRNA or protein) (fraction of control) worked out at 0.73.

As for ATGAAGGAGGCGTTTCCGTT, in the series with PIK3CD, the remaining target (mRNA or protein) (fraction of control) is 0.81 and 0.32.

For ATGCAAACATATAGGAGTCA, in the series with PIK3CB, the remaining target (mRNA or protein) (fraction of control) is not below 1.

In the series with MAP2K1, ATTAAGCATTTATTCACA registered a remaining target (mRNA or protein) (fraction of control) not below 1.

Take ATTAGTGGATGATCACCAAA: the remaining target (mRNA or protein) (fraction of control) in the series with PIK3CB is 0.99.

With ATTCCCATGCCGTCGTAAAA, the remaining target (mRNA or protein) (fraction of control) with PIK3CB was not below 1.

In the series with PIK3CB, ATTGAGTGCTTCAACCTGCT returned a remaining target (mRNA or protein) (fraction of control) not below 1.

In the series with MAP2K1, CAAAATCCACTTCCTCAG registered a remaining target (mRNA or protein) (fraction of control) of 0.28.

In the series with PIK3CB, CACACAGTTCCGGATATACT returned a remaining target (mRNA or protein) (fraction of control) not below 1.

On to CACCCAAACATCAGCTCC, for which the remaining target (mRNA or protein) (fraction of control) with MAP2K1 was 0.41.

In turn, CACCGCCCAGATGTCAAGGA returned a remaining target (mRNA or protein) (fraction of control) with PIK3CB of 0.5.

With CAGCCGAGAGCCAGGTGCAG, the remaining target (mRNA or protein) (fraction of control) with PIK3CD was ≥ 1 and 0.59.

For the sequence CAGCGCAAAGAGAGTGATGA, the remaining target (mRNA or protein) (fraction of control) with PIK3CB was not below 1.

Take CAGGGGGCATCCTGCGTTGT: in the series with PIK3CD, the remaining target (mRNA or protein) (fraction of control) is 0.85 and ≥ 1.

In the series with PIK3CB, CATATTAGGAGACACTTGAA yielded a remaining target (mRNA or protein) (fraction of control) not below 1.

In the series with MAP2K1, CATCTGGAGGAGGGATGG registered a remaining target (mRNA or protein) (fraction of control) of 0.71.

Turning to CATGAACCATGAGTTGCT, the remaining target (mRNA or protein) (fraction of control) in the series with MAP2K1 amounted to 0.24.

On to CCACCCCAGGGGGCATCCTG, for which the remaining target (mRNA or protein) (fraction of control) with PIK3CD is ≥ 1 and 0.37.

As for CCAGGGCTGGGAGGAGCCAC, the remaining target (mRNA or protein) (fraction of control) with PIK3CD is 0.91 and 0.69.

In the series with PIK3CB, CCATAACATCTGCTTAATAT yielded a remaining target (mRNA or protein) (fraction of control) not below 1.

CCCAGCTCACTGATCTTC displayed a remaining target (mRNA or protein) (fraction of control) in the series with MAP2K1 of 0.89.

Consider CCCCAGGGGGCATCCTGCGT, for which, in the series with PIK3CD, the remaining target (mRNA or protein) (fraction of control) is 0.81 and 0.96.

As for CCCCGGTCTTAAGCTGGTCC, in the series with PIK3CD, the remaining target (mRNA or protein) (fraction of control) was 0.31 and 0.42.

CCTCCTCTTGGGCCCAGGGC: the remaining target (mRNA or protein) (fraction of control) with PIK3CD is ≥ 1 and 0.71.

For CCTCGGGAGGAGAACAGTCT, the remaining target (mRNA or protein) (fraction of control) with PIK3CD is ≥ 1 and 0.45.

For CGGCCGCTCGTGCCGAATTC, the remaining target (mRNA or protein) (fraction of control) with PIK3CD is 0.96 and ≥ 1.

Take CGGCTGCTCCAGGGACCACA: the remaining target (mRNA or protein) (fraction of control) with PIK3CD is 0.63 and 0.38.

CGTTGCTCGTCCTCCAGCTC: in the series with PIK3CD, the remaining target (mRNA or protein) (fraction of control) was 0.47 and 0.27.

In the series with MAP2K1, CTACCCACATTCACCAAA yielded a remaining target (mRNA or protein) (fraction of control) of 0.72.

Take CTAGGATGTTGGAGGGCT: in the series with MAP2K1, the remaining target (mRNA or protein) (fraction of control) was determined as 0.27.

In the series with MAP2K1, CTCTGTGCATGATCTTGT registered a remaining target (mRNA or protein) (fraction of control) of 0.51.
